Measurements from publication PMC5735135, “Oxidative rearrangement of (+)-sesamin by CYP92B14 co-generates twin dietary lignans in sesame” (Nature Communications, 2017).

Experiments:
[1] = biological target: T1, CYP92B14 (Sesamum indicum, UniProt A0A2Z5U627); assay: inhibition of (+)-sesamolin and (+)-sesaminol formation; assay type: cell-based; details: substrate (+)-sesamin; also a reaction by-product
T1 construct: full-length ORF expressed in yeast INVSc with sesame CPR1 (GenBank LC209223) as reductase; microsomes or whole yeast cells
T1 sequence (A0A2Z5U627 1-513): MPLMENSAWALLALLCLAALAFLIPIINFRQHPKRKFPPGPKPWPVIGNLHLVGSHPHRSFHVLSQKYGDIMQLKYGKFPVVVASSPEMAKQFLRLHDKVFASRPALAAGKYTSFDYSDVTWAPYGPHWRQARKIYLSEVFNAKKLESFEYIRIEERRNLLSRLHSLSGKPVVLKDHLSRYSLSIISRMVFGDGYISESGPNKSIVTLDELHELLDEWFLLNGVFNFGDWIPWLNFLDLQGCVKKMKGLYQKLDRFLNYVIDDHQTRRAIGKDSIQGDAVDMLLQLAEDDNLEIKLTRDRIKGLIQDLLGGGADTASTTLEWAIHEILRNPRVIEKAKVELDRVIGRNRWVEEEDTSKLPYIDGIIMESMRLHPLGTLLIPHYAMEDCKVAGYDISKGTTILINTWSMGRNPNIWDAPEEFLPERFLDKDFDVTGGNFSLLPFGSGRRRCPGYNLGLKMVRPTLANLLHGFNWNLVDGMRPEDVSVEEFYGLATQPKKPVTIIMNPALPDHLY

[2] = biological target: T2, CYP81Q1 (Sesamum indicum, UniProt Q33DY0); assay: HPLC of products formed by yeast cells ([…] nm); assay type: cell-based; details: CPR1 and CYP92B14 co-expressed, 48 h
T2 construct: full-length ORF expressed in yeast INVSc with sesame CPR1 (and CYP92B14); whole yeast cells
T2 sequence (Q33DY0 1-506): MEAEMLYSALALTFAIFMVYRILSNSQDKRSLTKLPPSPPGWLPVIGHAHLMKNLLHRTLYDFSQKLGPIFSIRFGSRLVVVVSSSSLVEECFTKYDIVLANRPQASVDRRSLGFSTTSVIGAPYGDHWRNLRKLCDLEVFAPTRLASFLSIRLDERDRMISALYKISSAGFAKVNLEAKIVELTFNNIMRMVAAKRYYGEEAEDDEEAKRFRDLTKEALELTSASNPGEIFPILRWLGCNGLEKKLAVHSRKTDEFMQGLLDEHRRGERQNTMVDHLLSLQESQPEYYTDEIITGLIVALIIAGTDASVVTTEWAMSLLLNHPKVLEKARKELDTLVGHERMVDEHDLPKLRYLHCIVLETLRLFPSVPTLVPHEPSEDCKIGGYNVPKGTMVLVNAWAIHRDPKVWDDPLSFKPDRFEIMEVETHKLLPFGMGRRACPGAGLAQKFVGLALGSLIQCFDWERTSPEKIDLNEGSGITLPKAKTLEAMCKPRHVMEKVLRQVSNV

[3] = biological target: T1, CYP92B14; assay: HPLC of products formed by yeast microsomes; assay type: biochemical; details: 100 uM (+)-sesamin, 1 mM NADPH, CPR1 co-expressed, 37 °C, 60 min

| Compound | inhibition of (+)-sesamolin and (+)-sesaminol formation [1] | HPLC of products formed by yeast microsomes [3] | also measured |
| --- | --- | --- | --- |
| OC1OC[C@@H]2[C@@H](c3ccc4c(c3)OCO4)OC[C@H]12 (single isomer, unassigned; (+)) [(+)-samin] | the supplementation of these two compounds clearly inhibited the biosynthetic activity of CYP92B14 |  |  |
| COc1cc([C@H]2OC[C@H]3[C@@H]2CO[C@@H]3c2ccc(O)c(OC)c2)ccc1O [(+)-pinoresinol] |  |  | HPLC of products formed by yeast cells (283 nm) [2]: co-expressing CYP81Q1, CYP92B14, and CPR1 converted (+)-pinoresinol to (+)-sesaminol and (+)-sesamolin via (+)-sesamin |
| c1cc2c(cc1[C@H]1OC[C@H]3[C@@H]1CO[C@@H]3c1ccc3c(c1)OCO3)OCO2 [(+)-sesamin] |  | yeast cells expressing CYP92B14 and CPR1 converted (+)-sesamin to (+)-sesamolin |  |
| c1cc2c(cc1O[C@H]1OC[C@H]3[C@@H]1CO[C@@H]3c1ccc3c(c1)OCO3)OCO2 [(+)-sesamolin] |  | yeast cells expressing CYP92B14 and CPR1 converted (+)-sesamin to (+)-sesamolin |  |
| Oc1ccc2c(c1)OCO2 [sesamol] | the supplementation of these two compounds clearly inhibited the biosynthetic activity of CYP92B14 |  |  |
